According to PubChem BioAssay AID1963421 (Molecular Pharmacology Branch, DTP, NCI, 2024):

Test system: 519858-162-T-J1-PDC complex spheroid growth, % test/control
Assay: Anticancer human tumor 519858-162-T-J1-PDC patient-derived colon adenocarcinoma cell line growth inhibition [Asc]
Settings: for IC50: curve of first compound; for viability, T/C: stronger effect = lower value
Method in brief: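 Spheroid model: tumor line + HUVEC + hMSC. Single agents and combinations; top conc. at/near clinical Cmax (10 microM if undetermined), half-log dilutions. DMSO stocks at 800-fold test concentration.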
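Note: seven day drug exposure begun three days after spheroid seeding.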
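Throughout, for viability, T/C: 100% = DMSO vehicle wells and lower values mean less viable spheroid.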

Question: With `CNC(C)C(=O)NC1CN(S(=O)(=O)c2cccc(S(=O)(=O)N3CCC4CCC(C(=O)NC(c5ccccc5)c5ccccc5)N4C(=O)C(NC(=O)C(C)NC)C3)c2)CCC2CCC(C(=O)NC(c3ccccc3)c3ccccc3)N2C1=O` (centres undefined) + CCN1C(C(=O)NC23CCC(C(=O)O)(CC2)CC3)C(c2cccc(Cl)c2F)C2(C(=O)Nc3cc(Cl)ccc32)C12CCCCC2 as the compound, how does the IC50 (second compound 0.00949 µM) read?
Answer: < 3.16 nM

Question: What about the IC50 (second compound 0.03 µM) of the same compound?
Answer: > 1000 nM

Question: And the IC50 (second compound 0.0949 µM)?
Answer: > 1000 nM

Question: What about the IC50 (second compound 0.3 µM) of the same compound?
Answer: > 1000 nM

Question: What about the IC50 (second compound 0.949 µM) of the same compound?
Answer: > 1000 nM

Question: What about the IC50 (second compound 3 µM) of the same compound?
Answer: > 1000 nM

Question: What about the viability, T/C (second compound 0.00949 µM, first compound 0.00316 µM) of the same compound?
Answer: 49.9%

Question: And the viability, T/C (second compound 0.00949 µM, first compound 0.01 µM)?
Answer: 104%

Question: What about the viability, T/C (second compound 0.00949 µM, first compound 0.0316 µM) of the same compound?
Answer: 91.5%

Question: And the viability, T/C (second compound 0.00949 µM, first compound 0.1 µM)?
Answer: 64.4%

Question: What about the viability, T/C (second compound 0.00949 µM, first compound 0.316 µM) of the same compound?
Answer: 98.7%

Question: And the viability, T/C (second compound 0.00949 µM, first compound 1 µM)?
Answer: 74.6%

Question: And the viability, T/C (second compound 0.03 µM, first compound 0.00316 µM)?
Answer: 112%

Question: What about the viability, T/C (second compound 0.03 µM, first compound 0.01 µM) of the same compound?
Answer: 89.9%

Question: And the viability, T/C (second compound 0.03 µM, first compound 0.0316 µM)?
Answer: 88.3%

Question: What about the viability, T/C (second compound 0.03 µM, first compound 0.1 µM) of the same compound?
Answer: 79%

Question: And the viability, T/C (second compound 0.03 µM, first compound 0.316 µM)?
Answer: 54.9%

Question: What about the viability, T/C (second compound 0.03 µM, first compound 1 µM) of the same compound?
Answer: 99%

Question: And the viability, T/C (second compound 0.0949 µM, first compound 0.00316 µM)?
Answer: 89.1%

Question: What about the viability, T/C (second compound 0.0949 µM, first compound 0.01 µM) of the same compound?
Answer: 73.9%

Question: What about the viability, T/C (second compound 0.0949 µM, first compound 0.0316 µM) of the same compound?
Answer: 85.1%

Question: And the viability, T/C (second compound 0.0949 µM, first compound 0.1 µM)?
Answer: 75.4%

Question: What about the viability, T/C (second compound 0.0949 µM, first compound 0.316 µM) of the same compound?
Answer: 60.4%

Question: What about the viability, T/C (second compound 0.0949 µM, first compound 1 µM) of the same compound?
Answer: 96.4%

Question: And the viability, T/C (second compound 0.3 µM, first compound 0.00316 µM)?
Answer: 94.6%

Question: What about the viability, T/C (second compound 0.3 µM, first compound 0.01 µM) of the same compound?
Answer: 75.3%

Question: And the viability, T/C (second compound 0.3 µM, first compound 0.0316 µM)?
Answer: 81.2%

Question: What about the viability, T/C (second compound 0.3 µM, first compound 0.1 µM) of the same compound?
Answer: 68.2%

Question: What about the viability, T/C (second compound 0.3 µM, first compound 0.316 µM) of the same compound?
Answer: 74.4%

Question: What about the viability, T/C (second compound 0.3 µM, first compound 1 µM) of the same compound?
Answer: 58.2%

Question: What about the viability, T/C (second compound 0.949 µM, first compound 0.00316 µM) of the same compound?
Answer: 94.3%

Question: What about the viability, T/C (second compound 0.949 µM, first compound 0.01 µM) of the same compound?
Answer: 87.4%

Question: What about the viability, T/C (second compound 0.949 µM, first compound 0.0316 µM) of the same compound?
Answer: 85.7%

Question: What about the viability, T/C (second compound 0.949 µM, first compound 0.1 µM) of the same compound?
Answer: 70.5%

Question: What about the viability, T/C (second compound 0.949 µM, first compound 0.316 µM) of the same compound?
Answer: 68.2%

Question: What about the viability, T/C (second compound 0.949 µM, first compound 1 µM) of the same compound?
Answer: 66%

Question: And the viability, T/C (second compound 3 µM, first compound 0.00316 µM)?
Answer: 62%

Question: And the viability, T/C (second compound 3 µM, first compound 0.01 µM)?
Answer: 76.1%

Question: What about the viability, T/C (second compound 3 µM, first compound 0.0316 µM) of the same compound?
Answer: 72.4%

Question: And the viability, T/C (second compound 3 µM, first compound 0.1 µM)?
Answer: 93.9%

Question: What about the viability, T/C (second compound 3 µM, first compound 0.316 µM) of the same compound?
Answer: 73.2%

Question: What about the viability, T/C (second compound 3 µM, first compound 1 µM) of the same compound?
Answer: 74%

Question: Which IC50 (second compound 0.00316 µM) does the source give for `Cn1ncnc1[C@H]1c2n[nH]c(=O)c3cc(F)cc(c23)N[C@@H]1c1ccc(F)cc1` + CNC(C)C(=O)NC1CN(S(=O)(=O)c2cccc(S(=O)(=O)N3CCC4CCC(C(=O)NC(c5ccccc5)c5ccccc5)N4C(=O)C(NC(=O)C(C)NC)C3)c2)CCC2CCC(C(=O)NC(c3ccccc3)c3ccccc3)N2C1=O here?
Answer: > 100 nM

Question: And the IC50 (second compound 0.01 µM)?
Answer: > 100 nM

Question: What about the IC50 (second compound 0.0316 µM) of the same compound?
Answer: > 100 nM

Question: What about the IC50 (second compound 0.1 µM) of the same compound?
Answer: > 100 nM

Question: And the IC50 (second compound 0.316 µM)?
Answer: > 100 nM

Question: And the IC50 (second compound 1 µM)?
Answer: > 100 nM

Question: What about the viability, T/C (second compound 0.00316 µM, first compound 0.000316 µM) of the same compound?
Answer: 71.1%

Question: And the viability, T/C (second compound 0.00316 µM, first compound 0.001 µM)?
Answer: 64.9%

Question: And the viability, T/C (second compound 0.00316 µM, first compound 0.00316 µM)?
Answer: 59.8%

Question: What about the viability, T/C (second compound 0.00316 µM, first compound 0.01 µM) of the same compound?
Answer: 62.1%

Question: And the viability, T/C (second compound 0.00316 µM, first compound 0.0316 µM)?
Answer: 60.9%

Question: What about the viability, T/C (second compound 0.00316 µM, first compound 0.1 µM) of the same compound?
Answer: 69.1%

Question: What about the viability, T/C (second compound 0.01 µM, first compound 0.000316 µM) of the same compound?
Answer: 94.7%

Question: What about the viability, T/C (second compound 0.01 µM, first compound 0.001 µM) of the same compound?
Answer: 94.5%

Question: What about the viability, T/C (second compound 0.01 µM, first compound 0.00316 µM) of the same compound?
Answer: 113%

Question: What about the viability, T/C (second compound 0.01 µM, first compound 0.01 µM) of the same compound?
Answer: 86.8%

Question: What about the viability, T/C (second compound 0.01 µM, first compound 0.0316 µM) of the same compound?
Answer: 103%

Question: And the viability, T/C (second compound 0.01 µM, first compound 0.1 µM)?
Answer: 78.4%

Question: What about the viability, T/C (second compound 0.0316 µM, first compound 0.000316 µM) of the same compound?
Answer: 103%

Question: What about the viability, T/C (second compound 0.0316 µM, first compound 0.001 µM) of the same compound?
Answer: 83%

Question: And the viability, T/C (second compound 0.0316 µM, first compound 0.00316 µM)?
Answer: 90.3%

Question: What about the viability, T/C (second compound 0.0316 µM, first compound 0.01 µM) of the same compound?
Answer: 87.5%

Question: What about the viability, T/C (second compound 0.0316 µM, first compound 0.0316 µM) of the same compound?
Answer: 102%

Question: What about the viability, T/C (second compound 0.0316 µM, first compound 0.1 µM) of the same compound?
Answer: 77.6%

Question: And the viability, T/C (second compound 0.1 µM, first compound 0.000316 µM)?
Answer: 70.6%

Question: What about the viability, T/C (second compound 0.1 µM, first compound 0.001 µM) of the same compound?
Answer: 78.3%

Question: And the viability, T/C (second compound 0.1 µM, first compound 0.00316 µM)?
Answer: 83.4%

Question: What about the viability, T/C (second compound 0.1 µM, first compound 0.01 µM) of the same compound?
Answer: 107%

Question: And the viability, T/C (second compound 0.1 µM, first compound 0.0316 µM)?
Answer: 80.9%

Question: And the viability, T/C (second compound 0.1 µM, first compound 0.1 µM)?
Answer: 97.5%

Question: What about the viability, T/C (second compound 0.316 µM, first compound 0.000316 µM) of the same compound?
Answer: 83.7%

Question: And the viability, T/C (second compound 0.316 µM, first compound 0.001 µM)?
Answer: 99.3%

Question: And the viability, T/C (second compound 0.316 µM, first compound 0.00316 µM)?
Answer: 89.4%

Question: And the viability, T/C (second compound 0.316 µM, first compound 0.01 µM)?
Answer: 97%

Question: What about the viability, T/C (second compound 0.316 µM, first compound 0.0316 µM) of the same compound?
Answer: 64.3%

Question: What about the viability, T/C (second compound 0.316 µM, first compound 0.1 µM) of the same compound?
Answer: 83.6%

Question: What about the viability, T/C (second compound 1 µM, first compound 0.000316 µM) of the same compound?
Answer: 92.6%

Question: What about the viability, T/C (second compound 1 µM, first compound 0.001 µM) of the same compound?
Answer: 76.3%

Question: What about the viability, T/C (second compound 1 µM, first compound 0.00316 µM) of the same compound?
Answer: 83.3%

Question: What about the viability, T/C (second compound 1 µM, first compound 0.01 µM) of the same compound?
Answer: 71.3%

Question: And the viability, T/C (second compound 1 µM, first compound 0.0316 µM)?
Answer: 90.6%

Question: And the viability, T/C (second compound 1 µM, first compound 0.1 µM)?
Answer: 78.1%
